Earlier results in patent US20100172986A1, “CONTROLLED RELEASE COMPOSITION AND PREPARATION THEREOF” (LOTUS PHARMACEUTICAL CO., LTD., priority 2006, published 2010).

Conditions: in adults

elimination half-life: six and seventeen
Compound: CCCC(CCC)C(=O)O [valproic acid, 2-Propylpentanoic acid]
